The test system of assay [1] is Gli-luciferase activity. Nature of the assay: Reporter gene assay (RGA) in TMHh12 cells, antagonism of Gli-luciferase activity in the presence of a Smo agonist. The assay is classed as cell-based. As to the method: Activity of the compounds was evaluated using a reporter gene assay (RGA) in TMHh12 cells.
In assay [2] the target is human Smoothened receptor (Homo sapiens, UniProt Q99835). Nature of the assay: Smo binding assay, displacement of radio-labeled smoothened agonist, filter binding format (human). The conditions noted are these: displacement of small molecule agonist of Smoothened, read-out: Human Smo bdg., IC50. The source says:
A Smo binding assay was developed using radio-labeled smoothened agonist for compound competition. Table 9 lists the IC50 for displacement of a small molecule agonist of Smoothened determined in a filter binding format for the mouse and human Smoothened receptor.

Assay [3] addresses mouse Smoothened receptor (Mus musculus, UniProt P56726). Briefly: Smo binding assay, displacement of radio-labeled smoothened agonist, filter binding format (mouse). The following applies: displacement of small molecule agonist of Smoothened, read-out: Mouse Smo bdg., IC50. An excerpt: A Smo binding assay was developed using radio-labeled smoothened agonist for compound competition.

[4] abbreviates: 25 nM small molecule Smo agonist, read-out: RGA (25 nM Smo agonist) IC50.
Where [5] appears, read: read-out: RGA (1 nM Smo agonist) IC50, 1 nM small molecule Smo agonist.

Like-named read-outs stand apart in the source and are kept apart here.

mouse Smoothened receptor, sequence (P56726 33-793): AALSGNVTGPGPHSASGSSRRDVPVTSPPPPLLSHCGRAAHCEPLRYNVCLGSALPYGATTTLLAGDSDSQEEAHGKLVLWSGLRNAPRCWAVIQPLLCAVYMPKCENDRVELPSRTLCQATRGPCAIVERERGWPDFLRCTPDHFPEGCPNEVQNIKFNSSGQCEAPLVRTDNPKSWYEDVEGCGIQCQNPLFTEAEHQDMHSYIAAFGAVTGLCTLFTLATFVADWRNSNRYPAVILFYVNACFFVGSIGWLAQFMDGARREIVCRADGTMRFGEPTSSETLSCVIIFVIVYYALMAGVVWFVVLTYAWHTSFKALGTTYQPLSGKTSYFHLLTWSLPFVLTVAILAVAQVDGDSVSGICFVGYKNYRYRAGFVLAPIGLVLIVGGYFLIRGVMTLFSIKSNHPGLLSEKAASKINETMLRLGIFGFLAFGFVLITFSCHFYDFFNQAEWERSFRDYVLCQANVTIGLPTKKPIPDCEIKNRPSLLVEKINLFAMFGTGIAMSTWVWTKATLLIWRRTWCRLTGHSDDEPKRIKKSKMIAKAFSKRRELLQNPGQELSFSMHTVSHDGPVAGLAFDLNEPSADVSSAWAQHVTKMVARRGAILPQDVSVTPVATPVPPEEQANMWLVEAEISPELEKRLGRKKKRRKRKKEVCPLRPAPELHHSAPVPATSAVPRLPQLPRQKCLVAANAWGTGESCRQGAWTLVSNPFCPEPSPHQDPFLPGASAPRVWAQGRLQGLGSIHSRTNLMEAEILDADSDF
human Smoothened receptor, sequence (Q99835 28-787): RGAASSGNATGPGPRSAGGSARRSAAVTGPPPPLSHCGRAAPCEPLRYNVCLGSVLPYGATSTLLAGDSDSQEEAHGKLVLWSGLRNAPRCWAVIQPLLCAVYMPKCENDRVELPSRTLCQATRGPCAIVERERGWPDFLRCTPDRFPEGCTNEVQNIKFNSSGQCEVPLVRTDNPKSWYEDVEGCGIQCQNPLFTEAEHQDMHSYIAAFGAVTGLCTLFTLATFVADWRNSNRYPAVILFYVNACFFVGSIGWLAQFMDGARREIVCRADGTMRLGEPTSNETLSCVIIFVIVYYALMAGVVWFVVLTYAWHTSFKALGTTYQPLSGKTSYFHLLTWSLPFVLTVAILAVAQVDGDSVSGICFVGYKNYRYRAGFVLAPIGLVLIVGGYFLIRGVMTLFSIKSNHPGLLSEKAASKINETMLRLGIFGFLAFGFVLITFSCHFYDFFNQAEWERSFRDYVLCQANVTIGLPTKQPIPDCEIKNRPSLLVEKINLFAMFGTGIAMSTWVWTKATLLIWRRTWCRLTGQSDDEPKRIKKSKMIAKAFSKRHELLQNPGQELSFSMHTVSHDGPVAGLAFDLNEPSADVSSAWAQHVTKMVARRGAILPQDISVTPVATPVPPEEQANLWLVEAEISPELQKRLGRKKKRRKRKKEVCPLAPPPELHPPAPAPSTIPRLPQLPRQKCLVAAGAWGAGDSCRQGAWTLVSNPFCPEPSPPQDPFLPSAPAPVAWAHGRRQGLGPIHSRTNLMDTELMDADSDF

Take `N#Cc1cnc(N2CCN(c3nnc(Cc4ccccc4)c4ccccc34)CC2)nc1` [Example 39, 2-[4-(4-Benzyl-phthalazin-1-yl)-piperazin-1-yl]-pyrimidine-5-carbonitrile]: the IC50 in assay [1] (setting [4]) was 100 to 1000 nM; in assay [1] (setting [5]), under 100 nM; in assay [2], 100 to 1000 nM; in assay [3], 100 to 1000 nM.
Consider `O=C(c1ccc(C(F)(F)F)cc1)N1CCC(c2cn(Cc3ccc(F)cc3)c3ccccc23)CC1` [Example 104], for which the IC50 in assay [1] (setting [4]) lay within 10000 to 40000 nM; in assay [1] (setting [5]), 1000 to 10000 nM; in assay [2], 1000 to 10000 nM; in assay [3] it was 1000 to 10000 nM.
In the case of `COC(=O)c1cnc(N2CCN(c3nnc(Cc4ccccc4)c4ccccc34)CC2)cn1` [Example 138], the IC50 was 100 to 1000 nM in assay [1] (setting [4]), under 100 nM in assay [1] (setting [5]), under 100 nM in assay [2] and under 100 nM in assay [3].
For the compound `CC(=O)c1ccc(N2CCN(c3nnc(Cc4ccccc4)c4ccccc34)CC2)nc1` [Example 134], the IC50 in assay [1] (setting [4]), in assay [1] (setting [5]), in assay [2] and in assay [3] was under 100 nM throughout.
`Cc1cc(N2CCN(c3ccc(C(F)(F)F)cn3)CC2)nnc1Cc1ccccc1` [Example 89]: the IC50 in assay [1] (setting [5]) was 100 to 1000 nM; in assay [2] it was under 100 nM; in assay [3], under 100 nM.
As to `CC(C)OC(=O)NCc1ccc(N2CCN(c3nnc(Cc4ccccc4)c4ccccc34)CC2)nc1` [Example 211], the IC50 in assay [1] (setting [4]) was 100 to 1000 nM; in assay [1] (setting [5]) it was under 100 nM; in assay [2], under 100 nM; in assay [3], under 100 nM.
As for `FC(F)(F)c1ccc(N2CCC(c3cn(Cc4ccccc4)c4ccccc34)CC2)nc1` [Example 97], the IC50 in assay [1] (setting [4]) was 1000 to 10000 nM; in assay [1] (setting [5]), under 100 nM; in assay [2], 100 to 1000 nM; in assay [3] it was 100 to 1000 nM.
`CCOC(=O)c1ccc(N2CCN(c3nnc(Cc4cccc(F)c4)c4ccccc34)CC2)nc1` [Example 185]: the IC50 in assay [1] (setting [4]) is 1000 to 10000 nM; in assay [1] (setting [5]), 100 to 1000 nM; in assay [2], under 100 nM; in assay [3] it was under 100 nM.
On to `N#Cc1cccc(C(=O)N2CCC(c3cn(Cc4ccc(F)cc4)c4ccccc34)CC2)c1` [Example 94, 3-{4-[1-(4-Fluoro-benzyl)-1H-indol-3-yl]-piperidine-1-carbonyl}-benzonitrile], for which the IC50 was in the range of 1000 to 10000 nM in assay [1] (setting [4]), 100 to 1000 nM in assay [1] (setting [5]), 100 to 1000 nM in assay [2] and 100 to 1000 nM in assay [3].
With `COC(C)(C)c1ccc(N2CCN(c3nnc(Cc4ccccc4)c4ccccc34)CC2)nc1` [Example 161, 1-Benzyl-4-{-4-[5-(1-methoxy-1-methyl-ethyl)-pyridin-2-yl]-piperazin-1-yl}-phthalazine], the IC50 in assay [1] (setting [4]), in assay [1] (setting [5]), in assay [2] and in assay [3] was under 100 nM throughout.
Turning to `C[C@H]1CN(c2ccc(C(C)(C)O)cn2)CCN1c1nnc(Cc2ccccc2Cl)c2ccccc12` [Example 196], the IC50 in assay [1] (setting [4]), in assay [1] (setting [5]), in assay [2] and in assay [3] was under 100 nM throughout.
Turning to `CC(C)(O)c1ccc(N2CCN(c3nnc(Cc4ccc(F)cc4)c4ccccc34)CC2)nc1` [Example 191, 2-(6-{4-[4-(4-Fluoro-benzyl)-phthalazin-1-yl]-piperazin-1-yl}-pyridin-3-yl)-propan-2-ol], the IC50 in assay [1] (setting [4]), in assay [1] (setting [5]), in assay [2] and in assay [3] was under 100 nM throughout.
`CC(C)(O)c1ccc(N2CCN(c3nnc(Cc4ccc(F)cc4F)c4ccccc34)CC2)nc1` [Example 193]: the IC50 in assay [1] (setting [4]), in assay [1] (setting [5]), in assay [2] and in assay [3] was under 100 nM each time.
On to `O=C(NC1CN(C(=O)OCc2ccccc2)C1)c1ccc(N2CCN(c3nnc(Cc4ccccc4)c4ccccc34)CC2)nc1` [Example 54x], for which the IC50 in assay [1] (setting [4]) is 100 to 1000 nM; in assay [1] (setting [5]), 100 to 1000 nM; in assay [2], under 100 nM; in assay [3], 100 to 1000 nM.
Take `FC(F)(F)c1ccc(N2CCN(c3nnc(Cc4ccccc4)c4ccccc34)CC2)nc1` [Example 2]: the IC50 was 100 to 1000 nM in assay [1] (setting [4]), under 100 nM in assay [1] (setting [5]), under 100 nM in assay [2] and under 100 nM in assay [3].
`COc1ccccc1Cc1nnc(N2CCN(c3ccc(C#N)cn3)CC2)c2ccccc12` [Example 175]: the IC50 in assay [1] (setting [4]) lay in the range of 1000 to 10000 nM; in assay [1] (setting [5]), 100 to 1000 nM; in assay [2] it was 1000 to 10000 nM; in assay [3], 100 to 1000 nM.
Turning to `O=C(O)c1ccc(N2CCN(c3nnc(Cc4ccccc4)c4ccccc34)CC2)cc1` [Example 16], the IC50 in assay [1] (setting [4]), in assay [1] (setting [5]), in assay [2] and in assay [3] was 1000 to 10000 nM in each case.
As for `FC(F)(F)c1c[nH]c(C2CCN(c3nnc(Cc4ccccc4)c4ccccc34)CC2)n1` [Example 112], the IC50 was 100 to 1000 nM in assay [1] (setting [4]), under 100 nM in assay [1] (setting [5]), 100 to 1000 nM in assay [2] and under 100 nM in assay [3].
Consider `CC(C)(O)c1cnc(N2CCN(c3nnc(Cc4ccccc4)c4ccccc34)CC2)cc1C(F)(F)F` [Example 148], for which the IC50 in assay [1] (setting [4]), in assay [1] (setting [5]), in assay [2] and in assay [3] was under 100 nM throughout.
On to `O=C1CN(c2nnc(Cc3ccccc3)c3ccccc23)CCN1c1ccccc1` [Example 108], for which the IC50 in assay [1] (setting [4]) lay within 1000 to 10000 nM; in assay [1] (setting [5]) it was 100 to 1000 nM; in assay [2] it was 100 to 1000 nM; in assay [3], 100 to 1000 nM.
For `Fc1cnc(F)c(N2CCN(c3nnc(Cc4ccccc4)c4ccccc34)CC2)c1` [Example 51], the IC50 fell in the range of 1000 to 10000 nM in assay [1] (setting [4]), 100 to 1000 nM in assay [1] (setting [5]), 1000 to 10000 nM in assay [2] and 1000 to 10000 nM in assay [3].
As for `C[C@@H]1CN(c2nnc(Cc3ccccc3)c3ccccc23)CCN1c1ccc(C(C)(C)O)cn1` [Example 154], the IC50 in assay [1] (setting [4]), in assay [1] (setting [5]), in assay [2] and in assay [3] was under 100 nM in each case.
In the case of `CC(O)(CO)c1ccc(N2CCN(c3nnc(Cc4ccccc4)c4ccccc34)CC2)nc1` (stereo not drawn) [Example 167, 2-{6-[4-(4-Benzyl-phthalazin-1-yl)-piperazin-1-yl]-pyridin-3-yl}-propane-1,2-diol], the IC50 in assay [1] (setting [4]) is 100 to 1000 nM; in assay [1] (setting [5]), under 100 nM; in assay [2], under 100 nM; in assay [3] it was under 100 nM.
Consider `CCOC(=O)c1cnc(N2CCN(c3nnc(Cc4ccccc4)c4ccccc34)C[C@H]2C(=O)OC)nc1C(F)(F)F` [Example 147, 2-[(S)-4-(4-Benzyl-phthalazin-1-yl)-2-methoxycarbonyl-piperazin-1-yl]-4-trifluoromethyl-pyrimidine-5-carboxylic acid ethyl ester], for which the concentration for half-maximal inhibition (IC50) in assay [1] (setting [4]) was 1000 to 10000 nM; in assay [1] (setting [5]) it was 100 to 1000 nM; in assay [2], under 100 nM; in assay [3], 100 to 1000 nM.
With `O=C1CCCN1c1ccc(N2CCN(c3nnc(Cc4ccccc4)c4ccccc34)CC2)nc1` [Example 131], the concentration for half-maximal inhibition (IC50) in assay [1] (setting [4]) was 100 to 1000 nM; in assay [1] (setting [5]), 100 to 1000 nM; in assay [2] it was under 100 nM; in assay [3], under 100 nM.
With `Cc1cccc(Cc2nnc(N3CCN(c4ccc(C#N)cn4)CC3)c3ccccc23)c1` [Example 69], the IC50 in assay [1] (setting [4]) is 1000 to 10000 nM; in assay [1] (setting [5]) it was under 100 nM; in assay [2], 100 to 1000 nM; in assay [3], 100 to 1000 nM.
With `N#Cc1ccc(N2CCN(c3nnc(Cc4cccc(C#N)c4)c4ccccc34)CC2)nc1` [Example 65], the IC50 in assay [1] (setting [4]) lay in the range of 1000 to 10000 nM; in assay [1] (setting [5]) it was 100 to 1000 nM; in assay [2], 100 to 1000 nM; in assay [3], 100 to 1000 nM.
For `CC(=O)c1cnc(N2CCN(c3nnc(Cc4ccccc4)c4ccccc34)C[C@H]2C)cn1` [Example 157], the IC50 in assay [1] (setting [4]), in assay [1] (setting [5]), in assay [2] and in assay [3] was under 100 nM throughout.
As to `FC(F)(F)c1ccc(N2CCC(c3cn(Cc4ccc(Br)cc4)c4ccccc34)CC2)nc1` [Example 99], the IC50 in assay [1] (setting [4]) is 1000 to 10000 nM; in assay [1] (setting [5]), 100 to 1000 nM; in assay [2], 100 to 1000 nM; in assay [3], 100 to 1000 nM.
For `NC1CN(C(=O)c2ccc(N3CCN(c4nnc(Cc5ccccc5)c5ccccc45)CC3)nc2)C1` [Example 54w], the IC50 in assay [1] (setting [4]) lay in the range of 1000 to 10000 nM; in assay [1] (setting [5]), 100 to 1000 nM; in assay [2], 10000 to 40000 nM; in assay [3] it was 1000 to 10000 nM.
As for `N#Cc1ccc(N2CCN(c3cnc(Cc4cccc(C(F)(F)F)c4)c4ccccc34)CC2)nc1` [Example 82], the IC50 in assay [1] (setting [4]) was in the range of 10000 to 40000 nM; in assay [1] (setting [5]), 1000 to 10000 nM; in assay [2], 1000 to 10000 nM; in assay [3] it was 1000 to 10000 nM.
With `CCOC(=O)c1ccc(N2CCN(c3nnc(Cc4ccccc4F)c4ccccc34)CC2)nc1` [Example 184], the IC50 is 100 to 1000 nM in assay [1] (setting [4]), 100 to 1000 nM in assay [1] (setting [5]), under 100 nM in assay [2] and under 100 nM in assay [3].
Take `COc1ccc(CN2Cc3c(Cc4ccccc4)nnc(N4CCN(c5ccc(C(F)(F)F)cn5)CC4)c3C2)cc1` [Example 243, 1-benzyl-6-(4-methoxybenzyl)-4-(4-(5-(trifluoromethyl)pyridin-2-yl)piperazin-1-yl)-6,7-dihydro-5H-pyrrolo[3,4-d]pyridazine]: the IC50 in assay [1] (setting [4]) was 1000 to 10000 nM; in assay [1] (setting [5]), 1000 to 10000 nM; in assay [2] it was 1000 to 10000 nM; in assay [3], 100 to 1000 nM.
As to `C[C@@H]1CN(c2nnc(Cc3ccccc3)c3ccccc23)CCN1c1cnc(C(C)(C)O)cn1` [Example 156], the IC50 in assay [1] (setting [4]), in assay [1] (setting [5]), in assay [2] and in assay [3] was under 100 nM throughout.

Values taken from patent publication US8536168B2 (Novartis AG, priority 2007, dated 2013).
